Results as given in patent US8637523B2, “Compounds for the reduction of beta-amyloid production” (Bristol-Myers Squibb Company, priority 2010, dated 2014).
Where “and” joins values, the source holds several entries; their conditions need not be identical. Equal values may be shown once.

Test system: not given
Assay: not given
Conditions: from CC(C)(C)OC(=O)N(CCOc1cc(N)ccc1C#N)CCc1nc(Cl)nc2c1CCC2c1ccc(F)cc1; cn_pd bond; 13-membered ring; Pd(OAc)2/Xantphos/Cs2CO3; 1,4-dioxane; 6.0 mM; 110.0 °C

| Compound | ring closure, isolated yield |
| --- | --- |
| CC(C)(C)OC(=O)N1CCOc2cc(ccc2C#N)Nc2nc(c3c(n2)C(c2ccc(F)cc2)CC3)CC1 (centres unmarked) | 21.4% |

Test system: not given
Assay: not given
Conditions: cn_pd bond; 12-membered ring; Pd(dba)3 (so in the source)/Xantphos/Cs2CO3; 1,4-dioxane; 30.7 mM; 110.0 °C

| Compound | ring closure, yield after HPLC |
| --- | --- |
| Clc1cn(-c2ccc3cc2OCCCNC2=NC(=N3)NC3=C2CCC3c2ccccc2)cn1 (centres unmarked) | 2.83% and 1.88% |

Same assay, conditions: from C=CCOc1cc(Nc2nc3c(c(N(C)CC=C)n2)CN(C)CC3c2ccc(F)cc2)ccc1C#N; rcm bond; 13-membered ring; Hoveyda-Grubbs II; 1,2-dichloroethane; 3.0 mM; 90.0 °C

| Compound | ring closure, yield after HPLC |
| --- | --- |
| CN1Cc2c(nc3nc2N(C)CC=CCOc2cc(ccc2C#N)N3)C(c2ccc(F)cc2)C1 (racemic) | 4.95% |

Same assay, conditions: from Cc1ncn(-c2ccc(N)cc2OCC(O)CCNc2nc(Cl)nc3c2CCC3c2ccc(F)cc2)n1; cn_pd bond; 13-membered ring; Pd(OAc)2/Xantphos/Cs2CO3; dioxane; 100.0 mM; 100.0 °C

| Compound | ring closure, yield after HPLC |
| --- | --- |
| Cc1ncn(-c2ccc3cc2OCC(O)CCNc2nc(nc4c2CCC4c2ccc(F)cc2)N3)n1 (mixture of isomers) | 24.4% |

Same assay, conditions: rcm bond; 14-membered ring; Hoveyda-Grubbs II; 1,2-dichloroethane; 0.975 mM; 100.0 °C

| Compound | ring closure, yield after HPLC |
| --- | --- |
| Clc1cn(-c2ccc3cc2OC/C=C/CCNc2nc(nc4c2CCC4c2ccccc2)N3)cn1 (centres unmarked) | 27.7% |

Test system: Aβ42
Assay: Cellular assay for inhibition of Aβ1-42 production (H4 APP751 SWE clone 8.20)
Type: cell-based
Conditions: 19 h, H4 APP751 SWE clone 8.20 cells, 19 h incubation; read-out: Activity Rating (Aβ42 cellular IC50), class symbol
Summary of the method: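 Compound-treated cells were incubated 19 h at 37 °C in 5% CO2. Aβ42 in the cell plate was detected overnight at 4 °C with an Aβ42 neoepitope antibody (565, Wallac-labelled, 0.8 ng/well) plus N-terminal antibody 26D6 (APC, 75 ng/well) in 40 mM Tris-HCl pH 7.4, 0.2% BSA. IC50s came from curve fitting.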

| Compound | IC50 |
| --- | --- |
| Cc1ncn(-c2ccc3cc2OCCCCCc2nc(nc4c2CCC4c2ccccc2)N3)n1 (centres unmarked) [Example 62A, 7-(3-methyl-1H-1,2,4-triazol-1-yl)-18-phenyl-10,11,12,13,14,16,17,18-octahydro-15,2-(azeno)-8,4-(metheno)cyclopenta[h][1,10,12]oxadiazacycloheptadecine] | < 10 nM |
| Cc1ncn(-c2ccc3cc2OCCCNc2nc(nc4c2CCC4c2ccc(F)cc2F)N3)n1 (centres unmarked) [Example 63A, 17-(2,4-difluorophenyl)-7-(3-methyl-1H-1,2,4-triazol-1-yl)-11,12,13,15,16,17-hexahydro-10H-14,2-(azeno)-8,4-(metheno)cyclopenta[g][1,5,9,11]oxatriazacyclohexadecine] | < 10 nM |
| Cc1ncn(-c2ccc3cc2OCCCCNc2nc(nc4c2CCC4c2ccc(F)cc2F)N3)n1 (centres unmarked) [Example 64B, 18-(2,4-difluorophenyl)-7-(3-methyl-1H-1,2,4-triazol-1-yl)-10,11,12,13,14,16,17,18-octahydro-15,2-(azeno)-8,4-(metheno)cyclopenta[h][1,6,10,12]oxatriazacycloheptadecine] | 10 to 100 nM |
| Cc1ncn(-c2ccc3cc2OCCCN(C)c2nc(nc4c2CCC4c2ccc(F)cc2)N3)n1 (centres unmarked) [Example 65B, 13-methyl-7-(3-methyl-1H-1,2,4-triazol-1-yl)-17-(4-fluorophenyl)-11,12,13,15,16,17-hexahydro-10H-14,2-(azeno)-8,4-(metheno)cyclopenta[g][1,5,9,11]oxatriazacyclohexadecine] | 10 to 100 nM |

Same assay, conditions: 19 h, H4 APP751 SWE clone 8.20 cells, 19 h incubation; unit inferred; read-out: Activity Rating (Aβ42 cellular IC50), numeric value

| Compound | IC50 |
| --- | --- |
| Cc1ncn(-c2ccc3cc2OCCCCCc2nc(nc4c2CCC4c2ccccc2)N3)n1 (centres unmarked) [Example 62B, 7-(3-methyl-1H-1,2,4-triazol-1-yl)-18-phenyl-10,11,12,13,14,16,17,18-octahydro-15,2-(azeno)-8,4-(metheno)cyclopenta[h][1,10,12]oxadiazacycloheptadecine] | 22 nM |
| Cc1ncn(-c2ccc3cc2OCCCNc2nc(nc4c2CCC4c2ccc(F)cc2F)N3)n1 (centres unmarked) [Example 63B, 17-(2,4-difluorophenyl)-7-(3-methyl-1H-1,2,4-triazol-1-yl)-11,12,13,15,16,17-hexahydro-10H-14,2-(azeno)-8,4-(metheno)cyclopenta[g][1,5,9,11]oxatriazacyclohexadecine] | 25 nM |
| Cc1ncn(-c2ccc3cc2OCCCCNc2nc(nc4c2CCC4c2ccc(F)cc2F)N3)n1 (centres unmarked) [Example 64A, 18-(2,4-difluorophenyl)-7-(3-methyl-1H-1,2,4-triazol-1-yl)-10,11,12,13,14,16,17,18-octahydro-15,2-(azeno)-8,4-(metheno)cyclopenta[h][1,6,10,12]oxatriazacycloheptadecine] | 5.3 nM |

Same assay, conditions: H4 APP751 SWE clone 8.20 cells, 19 h incubation; read-out: Activity Rating (Aβ42 cellular IC50), class symbol

| Compound | IC50 |
| --- | --- |
| (11E)-7-(3-methyl-1H-1,2,4-triazol-1-yl)-18-phenyl-10,13,14,16,17,18-hexahydro-15,2-(azeno)-8,4-(metheno)cyclopenta[h][1,6,10,12]oxatriazacycloheptadecine [Example 40A] | < 10 nM |
| (11E)-7-(4-chloro-1H-imidazol-1-yl)-18-phenyl-10,13,14,16,17,18-hexahydro-15,2-(azeno)-8,4-(metheno)cyclopenta[h][1,6,10,12]oxatriazacycloheptadecine [Example 2A] | 10 to 100 nM |
| (11E)-7-cyano-18-(2,4-difluorophenyl)-10,13,14,16,17,18-hexahydro-15,2-(azeno)-8,4-(metheno)cyclopenta[h][1,6,10,12]oxatriazacycloheptadecine [Example 25A] | 10 to 100 nM |
| (11Z)-7-(3-methyl-1H-1,2,4-triazol-1-yl)-18-phenyl-10,13,14,16,17,18-hexahydro-15,2-(azeno)-8,4-(metheno)cyclopenta[h][1,10,12]oxadiazacycloheptadecine [Example 58A] | < 10 nM |
| (11Z)-7-(4-chloro-1H-imidazol-1-yl)-18-phenyl-10,13,14,16,17,18-hexahydro-15,2-(azeno)-8,4-(metheno)cyclopenta[h][1,6,10,12]oxatriazacycloheptadecine [Example 1B] | 10 to 100 nM |
| (11Z)-7-cyano-18-phenyl-10,13,14,16,17,18-hexahydro-15,2-(azeno)-8,4-(metheno)cyclopenta[h][1,10,12]oxadiazacycloheptadecine [Example 36A] | 100 to 1000 nM |
| (11Z)-18-(2,4-difluorophenyl)-7-(3-methyl-1H-1,2,4-triazol-1-yl)-10,13,14,16,17,18-hexahydro-15,2-(azeno)-8,4-(metheno)cyclopenta[h][1,6,10,12]oxatriazacycloheptadecine [Example 51A] | < 10 nM |
| (11Z)-18-(2,4-difluorophenyl)-7-(3-methyl-1H-1,2,4-triazol-1-yl)-10,13,14,16,17,18-hexahydro-15,2-(azeno)-8,4-(metheno)cyclopenta[h][1,6,10,12]oxatriazacycloheptadecine [Example 51B] | 10 to 100 nM |
| (11Z)-18-(2,4-difluorophenyl)-7-(5-methyl-1H-1,2,4-triazol-1-yl)-10,13,14,16,17,18-hexahydro-15,2-(azeno)-8,4-(metheno)cyclopenta[h][1,6,10,12]oxatriazacycloheptadecine [Example 53A] | < 10 nM |

Same assay, conditions: H4 APP751 SWE clone 8.20 cells, 19 h incubation; unit inferred; read-out: Activity Rating (Aβ42 cellular IC50), numeric value

| Compound | IC50 |
| --- | --- |
| CC1(c2ccc(F)cc2)CCc2c3nc(nc21)Nc1ccc(C#N)c(c1)OC/C=C\CN3 (centres unmarked) [Example 68, (11E)-7-cyano-18-(4-fluorophenyl)-18-methyl-10,13,14,16,17,18-hexahydro-15,2-(azeno)-8,4-(metheno)cyclopenta[h][1,6,10,12]oxatriazacycloheptadecine] | 160 nM |
| CC1(c2ccc(F)cc2)CCc2c3nc(nc21)Nc1ccc(C#N)c(c1)OC/C=C\CN3 (centres unmarked) [Example 69, (11Z)-7-cyano-18-(4-fluorophenyl)-18-methyl-10,13,14,16,17,18-hexahydro-15,2-(azeno)-8,4-(metheno)cyclopenta[h][1,6,10,12]oxatriazacycloheptadecine] | 120 nM |
| (11E)-7-(3-methyl-1H-1,2,4-triazol-1-yl)-18-phenyl-10,13,14,16,17,18-hexahydro-15,2-(azeno)-8,4-(metheno)cyclopenta[h][1,6,10,12]oxatriazacycloheptadecine [Example 40B] | 25 nM |
| (11E)-7-(4-chloro-1H-imidazol-1-yl)-18-phenyl-10,13,14,16,17,18-hexahydro-15,2-(azeno)-8,4-(metheno)cyclopenta[h][1,6,10,12]oxatriazacycloheptadecine [Example 2B] | 15 nM |
| (11E)-7-cyano-18-(2,4-difluorophenyl)-10,13,14,16,17,18-hexahydro-15,2-(azeno)-8,4-(metheno)cyclopenta[h][1,6,10,12]oxatriazacycloheptadecine [Example 25B] | 53 nM |
| (11Z)-7-(3-methyl-1H-1,2,4-triazol-1-yl)-18-phenyl-10,13,14,16,17,18-hexahydro-15,2-(azeno)-8,4-(metheno)cyclopenta[h][1,10,12]oxadiazacycloheptadecine [Example 58B] | 24 nM |
| (11Z)-7-(4-chloro-1H-imidazol-1-yl)-18-phenyl-10,13,14,16,17,18-hexahydro-15,2-(azeno)-8,4-(metheno)cyclopenta[h][1,6,10,12]oxatriazacycloheptadecine [Example 1A] | 3.9 nM |
| (11Z)-18-(2,4-difluorophenyl)-7-(5-methyl-1H-1,2,4-triazol-1-yl)-10,13,14,16,17,18-hexahydro-15,2-(azeno)-8,4-(metheno)cyclopenta[h][1,6,10,12]oxatriazacycloheptadecine [Example 53B] | 17 nM |
